Laboratory results reported in patent publication US7462600B2, “Macrolides” (Pfizer Inc, priority 2004, dated 2008).
Converted amounts (≈) assume the structure as drawn. Like-named read-outs stand apart in the source and are kept apart here.

Tests used:
Assay type in all cases: cell-based
[1] = system: Streptococcus pyogenes 1079; assay: MIC, microtiter broth dilution (NCCLS M100-S14), S. pyogenes 1079 (ermB)
How it was run: (§1)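 Compounds were first dissolved in DMSO (40 mg/ml stock), then tested by broth dilution in microtiter trays. MICs were interpreted using the 14th Informational Supplement (M100-S14) criteria.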

[2] = system: Haemophilus influenzae 1218; assay: MIC, microtiter broth dilution (NCCLS M100-S14), H. influenzae 1218 (susceptible)
How it was run: as §1

[3] = system: Streptococcus pneumoniae 1095; conditions: microtiter broth dilution
How it was run: as §1

[4] = system: Streptococcus pneumoniae 1175; conditions: microtiter broth dilution
How it was run: as §1

[5] = system: Streptococcus pneumoniae 1016; assay: MIC, microtiter broth dilution (NCCLS M100-S14), S. pneumoniae 1016 (susceptible)
How it was run: as §1

[6] = H. influenzae 1218 (susceptible)
[7] = S. pneumoniae 1016 (susceptible)

## CCC1OC(=O)C(C)C(=O)C(C)C(OC2OC(C)CC(N(C)C)C2O)C(C)(OC)CC(C)C(=O)C(C)C2N(C3CN(S(=O)(=O)c4ccc(C#N)cc4)C3)C(=O)OC12C (stereo not shown) [Example 3.11, 3-descladinosyl-11,12-dideoxy-6-O-methyl-3-oxo-12,11-(oxycarbonyl-(1-(4-cyanobenzenesulfonyl)-azetidin-3-yl)-imino)-erythromycin A]
[1]; Streptococcus pyogenes 1079
  MIC S. pyogenes 1079: 8 µg/mL (≈ 9.6 µM)
[2]; Haemophilus influenzae 1218
  MIC H. influenzae 1218: 0.25 µg/mL (≈ 0.3 µM)
[3]; Streptococcus pneumoniae 1095
  MIC S. pneumo. 1095: <0.06 µg/mL
[4]; Streptococcus pneumoniae 1175
  MIC S. pneumo. 1175: 0.5 µg/mL (≈ 0.6 µM)
[5]; Streptococcus pneumoniae 1016
  MIC S. pneumo. 1016: <0.06 µg/mL

## CC[C@H]1OC(=O)[C@H](C)C(=O)[C@H](C)[C@@H](O[C@@H]2O[C@H](C)C[C@H](N(C)C)[C@H]2O)[C@](C)(OC)C[C@@H](C)C(=O)[C@H](C)[C@H]2N(CC3(O)CN(S(=O)(=O)c4ccc5[nH]c(=O)oc5c4)C3)C(=O)O[C@]12C [7.16]
[1]; S. pyogenes 1079 (ermB)
  MIC S. pyogenes 1079: >64.00 µg/mL
[2]; [6]
  MIC H. influenzae 1218: 1 µg/mL (≈ 1.12 µM)
[3]; S. pneumoniae 1095 (ermB)
  MIC S. pneumo. 1095: 64 µg/mL (≈ 71.5 µM)
[4]; S. pneumoniae 1175 (mefA)
  MIC S. pneumo. 1175: 4 µg/mL (≈ 4.47 µM)
[5]; [7]
  MIC S. pneumo. 1016: <0.06 µg/mL

## CCC1OC(=O)C(C)C(=O)C(C)C(OC2OC(C)CC(N(C)C)C2O)C(C)(OC)CC(C)C(=O)C(C)C2N(CC3CN(Cc4cccnc4)C3)C(=O)OC12C (stereo not shown) [4.04]
[1]; Streptococcus pyogenes 1079
  MIC S. pyogenes 1079: >64.00 µg/mL
[2]; Haemophilus influenzae 1218
  MIC H. influenzae 1218: 0.5 µg/mL (≈ 0.647 µM)
[3]; Streptococcus pneumoniae 1095
  MIC S. pneumo. 1095: 16 µg/mL (≈ 20.7 µM)
[4]; Streptococcus pneumoniae 1175
  MIC S. pneumo. 1175: 0.25 µg/mL (≈ 0.323 µM)
[5]; Streptococcus pneumoniae 1016
  MIC S. pneumo. 1016: <0.06 µg/mL

## CCC1OC(=O)C(C)C(=O)C(C)C(OC2OC(C)CC(N(C)C)C2O)C(C)(OC)CC(C)C(=O)C(C)C2N(C3CN(C(=O)NCc4cnc5ccccc5c4)C3)C(=O)OC12C (stereo not shown) [Example 2.11, N-((quinolin-3-)methyl) aminocarbonyl]
[1]; Streptococcus pyogenes 1079
  MIC S. pyogenes 1079: >64.00 µg/mL
[2]; Haemophilus influenzae 1218
  MIC H. influenzae 1218: 0.5 µg/mL (≈ 0.587 µM)
[3]; Streptococcus pneumoniae 1095
  MIC S. pneumo. 1095: 2 µg/mL (≈ 2.35 µM)
[4]; Streptococcus pneumoniae 1175
  MIC S. pneumo. 1175: 0.12 µg/mL (≈ 0.141 µM)
[5]; Streptococcus pneumoniae 1016
  MIC S. pneumo. 1016: <0.06 µg/mL

## CCC1OC(=O)C(C)C(=O)C(C)C(OC2OC(C)CC(N(C)C)C2O)C(C)(OC)CC(C)C(=O)C(C)C2N(C3CN(S(=O)(=O)c4ccc(-n5ccnc5)c(C)c4)C3)C(=O)OC12C (stereo not shown) [Example 3.53, 4-(1H-imidazol-1-yl)-3-methylbenzenesulfonyl]
[1]; Streptococcus pyogenes 1079
  MIC S. pyogenes 1079: 64 µg/mL (≈ 72.1 µM)
[2]; Haemophilus influenzae 1218
  MIC H. influenzae 1218: 4 µg/mL (≈ 4.5 µM)
[3]; Streptococcus pneumoniae 1095
  MIC S. pneumo. 1095: <0.06 µg/mL
[4]; Streptococcus pneumoniae 1175
  MIC S. pneumo. 1175: 0.25 µg/mL (≈ 0.282 µM)
[5]; Streptococcus pneumoniae 1016
  MIC S. pneumo. 1016: <0.06 µg/mL

## CCC1OC(=O)C(C)C(=O)C(C)C(OC2OC(C)CC(N(C)C)C2O)C(C)(OC)CC(C)C(=O)C(C)C2N(C3CCN(S(=O)(=O)c4cccc5cnccc45)C3)C(=O)OC12C (stereo not shown) [Example 9.08, isoquinoline-5-sulfonyl]
[1]; S. pyogenes 1079 (ermB)
  MIC S. pyogenes 1079: 16 µg/mL (≈ 18.3 µM)
[2]; [6]
  MIC H. influenzae 1218: 0.25 µg/mL (≈ 0.286 µM)
[3]; S. pneumoniae 1095 (ermB)
  MIC S. pneumo. 1095: 4 µg/mL (≈ 4.58 µM)
[4]; S. pneumoniae 1175 (mefA)
  MIC S. pneumo. 1175: 0.12 µg/mL (≈ 0.137 µM)
[5]; [7]
  MIC S. pneumo. 1016: <0.06 µg/mL

## CCC1OC(=O)C(C)C(=O)C(C)C(OC2OC(C)CC(N(C)C)C2O)C(C)(OC)CC(C)C(=O)C(C)C2N(CC3CCCN3C(=O)c3ccnc4ccccc34)C(=O)OC12C (stereo not shown) [12.08]
[1]; S. pyogenes 1079 (ermB)
  MIC S. pyogenes 1079: >64.00 µg/mL
[2]; [6]
  MIC H. influenzae 1218: 16 µg/mL (≈ 18.8 µM)
[3]; S. pneumoniae 1095 (ermB)
  MIC S. pneumo. 1095: 1 µg/mL (≈ 1.18 µM)
[4]; S. pneumoniae 1175 (mefA)
  MIC S. pneumo. 1175: 2 µg/mL (≈ 2.35 µM)
[5]; [7]
  MIC S. pneumo. 1016: <0.06 µg/mL

## CCC1OC(=O)C(C)C(=O)C(C)C(OC2OC(C)CC(N(C)C)C2O)C(C)(OC)CC(C)C(=O)C(C)C2N(CC3CCCN3C(=O)c3cnc4ccccc4c3)C(=O)OC12C (stereo not shown) [12.05]
[1]; S. pyogenes 1079 (ermB)
  MIC S. pyogenes 1079: >64.00 µg/mL
[2]; [6]
  MIC H. influenzae 1218: 4 µg/mL (≈ 4.7 µM)
[3]; S. pneumoniae 1095 (ermB)
  MIC S. pneumo. 1095: 1 µg/mL (≈ 1.18 µM)
[4]; S. pneumoniae 1175 (mefA)
  MIC S. pneumo. 1175: 1 µg/mL (≈ 1.18 µM)
[5]; [7]
  MIC S. pneumo. 1016: <0.06 µg/mL

## CCC1OC(=O)C(C)C(=O)C(C)C(OC2OC(C)CC(N(C)C)C2O)C(C)(OC)CC(C)C(=O)C(C)C2N(C3CN(S(=O)(=O)c4cccc(-c5cc[nH]n5)c4)C3)C(=O)OC12C (stereo not shown) [Example 3.36, 3-descladinosyl-11,12-dideoxy-6-O-methyl-3-oxo-12,11-(oxycarbonyl-(1-(3-(1H-pyrazol-3-yl)benzenesulfonyl)-azetidin-3-yl)-imino)-erythromycin A]
[1]; Streptococcus pyogenes 1079
  MIC S. pyogenes 1079: 1 µg/mL (≈ 1.14 µM)
[2]; Haemophilus influenzae 1218
  MIC H. influenzae 1218: 0.25 µg/mL (≈ 0.286 µM)
[3]; Streptococcus pneumoniae 1095
  MIC S. pneumo. 1095: <0.06 µg/mL
[4]; Streptococcus pneumoniae 1175
  MIC S. pneumo. 1175: <0.06 µg/mL
[5]; Streptococcus pneumoniae 1016
  MIC S. pneumo. 1016: <0.06 µg/mL

## CCCC(c1ccnc2ccccc12)N1CC(N2C(=O)OC3(C)C(CC)OC(=O)C(C)C(=O)C(C)C(OC4OC(C)CC(N(C)C)C4O)C(C)(OC)CC(C)C(=O)C(C)C23)C1 (stereo not shown) [Example 1.64, 3-descladinosyl-11,12-dideoxy-6-O-methyl-3-oxo-12,11-(oxycarbonyl-(1-(1-(quinolin4-yl)-butyl)-azetidin-3-yl)-imino)-erythromycin A]
[1]; Streptococcus pyogenes 1079
  MIC S. pyogenes 1079: 1 µg/mL (≈ 1.17 µM)
[2]; Haemophilus influenzae 1218
  MIC H. influenzae 1218: 1 µg/mL (≈ 1.17 µM)
[3]; Streptococcus pneumoniae 1095
  MIC S. pneumo. 1095: <0.06 µg/mL
[4]; Streptococcus pneumoniae 1175
  MIC S. pneumo. 1175: <0.06 µg/mL
[5]; Streptococcus pneumoniae 1016
  MIC S. pneumo. 1016: <0.06 µg/mL

## CCC1OC(=O)C(C)C(=O)C(C)C(OC2OC(C)CC(N(C)C)C2O)C(C)(OC)CC(C)C(=O)C(C)C2N(CC3CCN(C(=O)c4cc5cccnc5[nH]4)C3)C(=O)OC12C (stereo not shown) [13.15]
[1]; S. pyogenes 1079 (ermB)
  MIC S. pyogenes 1079: >64.00 µg/mL
[2]; [6]
  MIC H. influenzae 1218: 4 µg/mL (≈ 4.76 µM)
[3]; S. pneumoniae 1095 (ermB)
  MIC S. pneumo. 1095: 2 µg/mL (≈ 2.38 µM)
[4]; S. pneumoniae 1175 (mefA)
  MIC S. pneumo. 1175: 0.12 µg/mL (≈ 0.143 µM)
[5]; [7]
  MIC S. pneumo. 1016: <0.06 µg/mL
